Results taken from the NIST ThermoML archive (doi:10.1016/j.fluid.2017.12.001).

Experiment: xn = mol fraction of the nth substance listed
Details: 100.9 kPa, Liquid; for viscosity: Concentric cylinders viscometry; for speed of sound: Single path-length method; for mass density: Vibrating tube method

CCCC(=O)[O-].CC[NH2+]CC [diethylammonium butanoate] + O
Details	mass density [kg/m3]	speed of sound [m/s]	viscosity [mPa·s]
283.15 K, x1 = 0.0122	–	–	2.24
283.15 K, x1 = 0.0123	1003.65	1576.3	–
283.15 K, x1 = 0.0451	–	–	6.91
283.15 K, x1 = 0.0453	1013.08	1794.6	–
283.15 K, x1 = 0.0999	–	–	19.26
283.15 K, x1 = 0.1005	1011.54	1814.6	–
283.15 K, x1 = 0.143	–	–	32.03
283.15 K, x1 = 0.1439	1001.71	1786.4	–
283.15 K, x1 = 0.2051	–	–	56.72
283.15 K, x1 = 0.2067	989.91	1733.5	–
283.15 K, x1 = 0.3064	–	–	106.48
283.15 K, x1 = 0.3096	976.25	–	–
283.15 K, x1 = 0.4879	–	–	158.58
283.15 K, x1 = 0.4951	956.67	1577.4	–
283.15 K, x1 = 0.6684	–	–	158.29
283.15 K, x1 = 0.6812	941.81	1516.2	–
283.15 K, x1 = 0.7974	930.25	1494.8	–
283.15 K, x1 = 0.974	925.8	1460.5	130.18
285.65 K, x1 = 0.0122	–	–	2.07
285.65 K, x1 = 0.0451	–	–	6.16
285.65 K, x1 = 0.0999	–	–	16.84
285.65 K, x1 = 0.143	–	–	27.94
285.65 K, x1 = 0.2051	–	–	49.1
285.65 K, x1 = 0.3064	–	–	91.1
285.65 K, x1 = 0.4879	–	–	135.58
285.65 K, x1 = 0.6684	–	–	135.69
285.65 K, x1 = 0.974	–	–	112.13
288.15 K, x1 = 0.0122	–	–	1.91
288.15 K, x1 = 0.0123	1002.55	1586.3	–
288.15 K, x1 = 0.0451	–	–	5.5
288.15 K, x1 = 0.0453	1010.64	1786.6	–
288.15 K, x1 = 0.0999	–	–	14.79
288.15 K, x1 = 0.1005	1007.9	1802.4	–
288.15 K, x1 = 0.143	–	–	24.41
288.15 K, x1 = 0.1439	996.76	1773	–
288.15 K, x1 = 0.2051	–	–	42.55
288.15 K, x1 = 0.2067	985.95	1718.7	–
288.15 K, x1 = 0.3064	–	–	78.15
288.15 K, x1 = 0.3096	972.8	–	–
288.15 K, x1 = 0.4879	–	–	116.04
288.15 K, x1 = 0.4951	952.3	1561.4	–
288.15 K, x1 = 0.6684	–	–	116.61
288.15 K, x1 = 0.6812	938.34	1499.7	–
288.15 K, x1 = 0.7974	926.65	1479.8	–
288.15 K, x1 = 0.974	922.1	1448.3	96.9
290.65 K, x1 = 0.0122	–	–	1.77
290.65 K, x1 = 0.0451	–	–	4.96
290.65 K, x1 = 0.0999	–	–	13.09
290.65 K, x1 = 0.143	–	–	21.48
290.65 K, x1 = 0.2051	–	–	37.08
290.65 K, x1 = 0.3064	–	–	67.44
290.65 K, x1 = 0.4879	–	–	99.81
290.65 K, x1 = 0.6684	–	–	100.54
290.65 K, x1 = 0.974	–	–	84.07
293.15 K, x1 = 0.0122	–	–	1.64
293.15 K, x1 = 0.0123	1001.45	1594.8	–
293.15 K, x1 = 0.0451	–	–	4.49
293.15 K, x1 = 0.0453	1008.2	1779.5	–
293.15 K, x1 = 0.0999	–	–	11.64
293.15 K, x1 = 0.1005	1004.13	1789.3	–
293.15 K, x1 = 0.143	–	–	18.97
293.15 K, x1 = 0.1439	992.35	1759.3	–
293.15 K, x1 = 0.2051	–	–	32.47
293.15 K, x1 = 0.2067	984.2	1705.2	–
293.15 K, x1 = 0.3064	–	–	58.44
293.15 K, x1 = 0.3096	969.35	1629.1	–
293.15 K, x1 = 0.4879	–	–	86.09
293.15 K, x1 = 0.4951	949.58	1539.3	–
293.15 K, x1 = 0.6684	–	–	87.06
293.15 K, x1 = 0.6812	937.26	1485.3	–
293.15 K, x1 = 0.7974	923.05	1464.7	–
293.15 K, x1 = 0.974	918.5	1433.9	73.19
295.65 K, x1 = 0.0122	–	–	1.53
295.65 K, x1 = 0.0451	–	–	4.05
295.65 K, x1 = 0.0999	–	–	10.38
295.65 K, x1 = 0.143	–	–	16.84
295.65 K, x1 = 0.2051	–	–	28.55
295.65 K, x1 = 0.3064	–	–	50.88
295.65 K, x1 = 0.4879	–	–	74.58
295.65 K, x1 = 0.6684	–	–	75.69
295.65 K, x1 = 0.974	–	–	63.97
298.15 K, x1 = 0.0122	–	–	1.43
298.15 K, x1 = 0.0123	1000.1	1601.8	–
298.15 K, x1 = 0.0451	–	–	3.69
298.15 K, x1 = 0.0453	1005.56	1770.9	–
298.15 K, x1 = 0.0999	–	–	9.31
298.15 K, x1 = 0.1005	1000.56	1776.6	–
298.15 K, x1 = 0.143	–	–	15.02
298.15 K, x1 = 0.1439	988.22	1745.3	–
298.15 K, x1 = 0.2051	–	–	25.19
298.15 K, x1 = 0.2067	979.99	1690.3	–
298.15 K, x1 = 0.3064	–	–	44.32
298.15 K, x1 = 0.3096	965.6	1613.5	–
298.15 K, x1 = 0.4879	–	–	64.82
298.15 K, x1 = 0.4951	945.79	1523.9	–
298.15 K, x1 = 0.6684	–	–	66.04
298.15 K, x1 = 0.6812	933.71	1468.9	–
298.15 K, x1 = 0.7974	919.45	1455.8	–
298.15 K, x1 = 0.974	914.7	1417.5	56.14
300.65 K, x1 = 0.0122	–	–	1.34
300.65 K, x1 = 0.0451	–	–	3.36
300.65 K, x1 = 0.0999	–	–	8.4
300.65 K, x1 = 0.143	–	–	13.44
300.65 K, x1 = 0.2051	–	–	22.34
300.65 K, x1 = 0.3064	–	–	38.93
300.65 K, x1 = 0.4879	–	–	56.68
300.65 K, x1 = 0.6684	–	–	57.86
300.65 K, x1 = 0.974	–	–	49.5
303.15 K, x1 = 0.0122	–	–	1.26
303.15 K, x1 = 0.0123	998.8	1607.5	–
303.15 K, x1 = 0.0451	–	–	3.08
303.15 K, x1 = 0.0453	1002.83	1762.1	–
303.15 K, x1 = 0.0999	–	–	7.62
303.15 K, x1 = 0.1005	997.23	1763.5	–
303.15 K, x1 = 0.143	–	–	12.08
303.15 K, x1 = 0.1439	984.45	1731.1	–
303.15 K, x1 = 0.2051	–	–	19.91
303.15 K, x1 = 0.2067	976.3	1675.2	–
303.15 K, x1 = 0.3064	–	–	34.33
303.15 K, x1 = 0.3096	960.9	1597.6	–
303.15 K, x1 = 0.4879	–	–	49.68
303.15 K, x1 = 0.4951	941.96	1509.1	–
303.15 K, x1 = 0.6684	–	–	50.88
303.15 K, x1 = 0.6812	930.52	1452.3	–
303.15 K, x1 = 0.7974	915.75	1439.9	–
303.15 K, x1 = 0.974	910.9	1400.2	43.73
305.65 K, x1 = 0.0122	–	–	1.19
305.65 K, x1 = 0.0451	–	–	2.84
305.65 K, x1 = 0.0999	–	–	6.89
305.65 K, x1 = 0.143	–	–	10.89
305.65 K, x1 = 0.2051	–	–	17.8
305.65 K, x1 = 0.3064	–	–	30.43
305.65 K, x1 = 0.4879	–	–	43.74
305.65 K, x1 = 0.6684	–	–	44.91
305.65 K, x1 = 0.974	–	–	38.76
308.15 K, x1 = 0.0122	–	–	1.12
308.15 K, x1 = 0.0123	–	1611.9	–
308.15 K, x1 = 0.0451	–	–	2.62
308.15 K, x1 = 0.0453	–	1753.1	–
308.15 K, x1 = 0.0999	–	–	6.28
308.15 K, x1 = 0.1005	–	1750.2	–
308.15 K, x1 = 0.143	–	–	9.83
308.15 K, x1 = 0.1439	–	1716.8	–
308.15 K, x1 = 0.2051	–	–	15.99
308.15 K, x1 = 0.3064	–	–	27.04
308.15 K, x1 = 0.4879	–	–	38.47
308.15 K, x1 = 0.6684	–	–	39.77
308.15 K, x1 = 0.974	–	–	34.5
